# In patent US20230039836A1, “AROMATIC SULPHONAMIDES DERIVATIVES THAT INHIBITS PDI A3, THEIR SYNTHESIS AND USE” (Uniwersytet Jagiellonski, priority 2020, published 2023):
# Assays:
# HT-29 [1] = experiment: Sulforhodamine B antiproliferative assay, 72 h; format: cell-based, human; conditions: Homo sapiens, HT-29; normal (21% of oxygen), 72-hour exposition
# Summary of the method: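 Cells at 10^5 cells/mL were given four concentrations within 0.1-100 ug/mL for 72 h at 37° C., under 21% O2 (normal) or <1% O2 (hypoxia). Growth read by sulforhodamine B staining after TCA fixation (A540); MTT (A570) was used for estradiol (200 nM) runs. Mean IC50 ± SD from ≥3 independent triplicate experiments.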
# HT-29 [2] = experiment: Long-term colony formation assay; format: cell-based, human; conditions: treated at IC50 dose, colonies after 2 weeks; FIGS. 1A and 1B
# Method: To confirm, anticancer effects, selected compounds of invention, PDIA1 inhibitors were tested in long-term colony formation assay. For long-term colony formation assay the human colorectal carcinoma cell lines Caco-2 and HT-29 were maintained as follows: HT-29 in RPMI-1640 with HEPES + OPTI-MEM (1:1) and Caco-2 in Eagle’s medium (all from IIET, Wroclaw, Poland) both culture media were supplemented with 2 mM L-glutamine, 1 mM sodium pyruvate (both from Sigma-Aldrich Chemie GmbH, Steinheim, Germany), fetal bovine serum: 5% HT-29 (GE Healthcare), 20% Caco-2 (Sigma-Aldrich Chemie GmbH, Steinheim, Germany), 100 U/ml penicillin, 100 µg/ml streptomycin (both from Polfa Tarchomin S.A., Warsaw, Poland). All cell lines were grown at 37° C. in a humidified atmosphere with 5% CO2. […] The viable cells were counted using a hemocytometer (trypan blue exclusion method) and seeded in triplicates at a density of 5 × 10^2 cells/3 ml and 2.5 × 10^2 cells/3 ml (9.5 cm^2) for Caco-2 and HT-29 respectively. […] After 2 weeks, the colonies were fixed and stained with 1% crystal violet/ethanol (Sigma-Aldrich), documented with Sony Alpha 300 camera (Sony), and counted manually using ImageJ 1.47 software (National Institutes of Health, Bethesda, MD, USA). Surviving fraction (SF) was calculated. […]
smiles,measurement,setting,value
"COC(=O)C1CN1S(=O)(=O)c1ccccc1 (centres unmarked) [Compound C-3251, Methyl 1-(benzenesulfonyl)aziridine-2-carboxylate]",IC50,HT-29 [1],30.2 ± 4.7 mg/L
same,"Inhibition of long-term colonies formation, HT-29",HT-29 [2],much potent towards HT-29 than CaCo-2 cell line
